Data as given in ChEMBL document CHEMBL1201862, “PubChem BioAssay data set” (2004).
The source made the active and inactive calls.

Key:
[1] = inhibitors of firefly luciferase expression or activity, dose response, H4 neuroglioma cells, luminescence (AID 1990); format: functional, cell-based
[2] = Luminescence Cell-Based Dose Response HTS to Identify Inhibitors of 5'UTR Stem-Loop Driven Prion Protein mRNA Translation in H4 Neuroglioblastoma Cells. [Related pubchem assays: 1827 (Project Summary), 1813 (Primary HTS)]; format: functional
[3] = inhibitors of SNCA 5'UTR-driven reporter translation, confirmation, H4 neuroglioma cells, luminescence (AID 1988); format: functional, cell-based
Cytochrome P450 2C9 = Cytochrome P450 2C9 (Homo sapiens, UniProt P11712)
Cytochrome P450 2C9, sequence (P11712 whole entry): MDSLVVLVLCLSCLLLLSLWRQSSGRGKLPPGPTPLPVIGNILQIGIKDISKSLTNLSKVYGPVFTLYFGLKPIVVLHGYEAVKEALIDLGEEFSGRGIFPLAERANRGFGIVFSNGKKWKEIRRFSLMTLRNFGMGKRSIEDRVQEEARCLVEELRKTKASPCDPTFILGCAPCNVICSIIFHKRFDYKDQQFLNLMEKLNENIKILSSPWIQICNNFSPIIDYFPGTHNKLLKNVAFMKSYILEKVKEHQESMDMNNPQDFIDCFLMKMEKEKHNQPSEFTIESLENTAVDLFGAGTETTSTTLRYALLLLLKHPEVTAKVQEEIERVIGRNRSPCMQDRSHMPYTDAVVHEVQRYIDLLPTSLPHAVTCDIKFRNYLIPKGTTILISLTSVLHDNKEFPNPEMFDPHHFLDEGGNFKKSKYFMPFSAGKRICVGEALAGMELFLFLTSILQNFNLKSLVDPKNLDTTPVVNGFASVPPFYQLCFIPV

[4] = biological target: T1, Heat shock factor protein 1 (Mus musculus, UniProt P38532); assay: HSF1 potentiators in luciferase reporter cells, confirmation, cell-based, NIH3T3, luminescence, dose retest (AID 435004); format: functional;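 note: stress induced by proteasome inhibitor MG132 added 30 min after compound; luciferase reporter driven by HSF1 response element in NIH3T3 cells; actives raise luminescence as potentiators of the MG132 stress response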
T1 sequence (P38532 whole entry): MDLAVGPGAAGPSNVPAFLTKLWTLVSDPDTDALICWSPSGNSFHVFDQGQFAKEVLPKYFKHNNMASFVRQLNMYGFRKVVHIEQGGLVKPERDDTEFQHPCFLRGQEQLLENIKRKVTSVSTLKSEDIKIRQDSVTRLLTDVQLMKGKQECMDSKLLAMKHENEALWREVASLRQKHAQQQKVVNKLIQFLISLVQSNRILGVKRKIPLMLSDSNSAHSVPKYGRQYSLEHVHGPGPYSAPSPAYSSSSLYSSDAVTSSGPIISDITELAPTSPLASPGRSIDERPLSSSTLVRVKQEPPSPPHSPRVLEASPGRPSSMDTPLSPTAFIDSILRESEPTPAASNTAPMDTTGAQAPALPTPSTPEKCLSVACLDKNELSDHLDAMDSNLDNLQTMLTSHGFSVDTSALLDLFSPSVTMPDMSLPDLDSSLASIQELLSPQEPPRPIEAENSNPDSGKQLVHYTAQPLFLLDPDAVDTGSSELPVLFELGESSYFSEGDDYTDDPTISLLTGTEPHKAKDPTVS

[5] = biological target: T1, Heat shock factor protein 1; assay: inhibition of MG132-induced HSE-luciferase signal, confirmation, cell-based, NIH3T3, luminescence, dose retest (AID 2382); format: functional;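 note: NIH3T3 fibroblasts with HSF1-driven luciferase reporter stressed by proteasome inhibitor MG132; luminescence from HSF1-driven luciferase expression after 8 hours of MG132 stress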
[6] = biological target: T2, Rac GTPase-activating protein 1 (Homo sapiens, UniProt Q9H0H5); assay: MgcRacGAP GTPase-activating activity inhibitors, confirmation, biochemical, ADP Hunter fluorescence, primary and confirmatory (AID 624330); format: functional
T2 sequence (Q9H0H5 whole entry): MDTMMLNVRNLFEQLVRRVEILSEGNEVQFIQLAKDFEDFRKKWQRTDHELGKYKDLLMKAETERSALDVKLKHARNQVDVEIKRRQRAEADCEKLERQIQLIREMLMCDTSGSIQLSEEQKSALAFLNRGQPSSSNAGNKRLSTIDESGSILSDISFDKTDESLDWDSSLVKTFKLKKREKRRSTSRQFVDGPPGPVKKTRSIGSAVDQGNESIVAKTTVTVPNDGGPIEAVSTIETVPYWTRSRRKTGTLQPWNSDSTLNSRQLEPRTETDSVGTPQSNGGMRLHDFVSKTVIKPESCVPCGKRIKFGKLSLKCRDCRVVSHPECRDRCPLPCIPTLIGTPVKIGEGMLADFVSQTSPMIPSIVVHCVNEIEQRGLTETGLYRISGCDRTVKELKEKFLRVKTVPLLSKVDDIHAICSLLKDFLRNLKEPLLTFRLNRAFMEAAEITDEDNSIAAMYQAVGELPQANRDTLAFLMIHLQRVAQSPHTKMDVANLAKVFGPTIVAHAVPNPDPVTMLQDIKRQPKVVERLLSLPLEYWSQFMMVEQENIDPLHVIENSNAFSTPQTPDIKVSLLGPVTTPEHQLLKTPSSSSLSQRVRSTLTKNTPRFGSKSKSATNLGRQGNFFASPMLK

[7] = inhibitors of intracellular T. cruzi replication, confirmation, NIH3T3 host cells, beta-gal luminescence (AID 2044); format: functional, cell-based;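 note: intracellular parasites grown in NIH/3T3 mouse fibroblasts as host cells; luminescent beta-galactosidase reporter signal from transgenic T. cruzi replicating inside host cells; inhibitors lower the luminescence signal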
[8] = cytotoxicity toward NIH3T3 fibroblasts, dose response, counter-screen, cell-based, ATP luminescence, mouse fibroblasts (AID 2010); format: functional;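 note: cells exposed to compound for about 90 hours before reading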
[9] = Luminescence Cell-Based Dose Retest to Confirm Inhibitors of Cancer Stem Cells. [Related pubchem assays (depositor defined):AID2717, AID2721]; format: functional; conditions: Homo sapiens
Cytochrome P450 2C19 = Cytochrome P450 2C19 (Homo sapiens, UniProt P33261); assay: Cytochrome panel assay with activity outcomes. Panel member name: p450-cyp2c19 Compounds with AC50 equal or less than 10 uM are considered active; format: functional; conditions: read-out: AC50
Cytochrome P450 2C19, sequence (P33261 whole entry): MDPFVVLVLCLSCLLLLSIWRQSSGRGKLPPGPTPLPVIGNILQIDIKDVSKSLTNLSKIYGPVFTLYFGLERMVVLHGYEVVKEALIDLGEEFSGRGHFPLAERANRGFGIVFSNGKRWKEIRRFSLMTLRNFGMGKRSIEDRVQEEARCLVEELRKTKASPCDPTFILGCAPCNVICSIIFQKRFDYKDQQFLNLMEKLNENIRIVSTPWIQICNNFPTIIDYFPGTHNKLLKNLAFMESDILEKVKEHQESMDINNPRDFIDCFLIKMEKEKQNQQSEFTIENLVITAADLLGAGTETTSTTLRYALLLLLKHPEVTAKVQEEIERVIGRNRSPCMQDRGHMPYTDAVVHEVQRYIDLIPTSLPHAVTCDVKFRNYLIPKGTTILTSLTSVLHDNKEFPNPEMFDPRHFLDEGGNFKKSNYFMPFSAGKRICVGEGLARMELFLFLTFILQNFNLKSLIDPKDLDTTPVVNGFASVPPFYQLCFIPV

[10] = test system: Streptococcus sp. 'group A'; assay: growth inhibition of control SK(-) GAS strain, dose response, counter-screen for streptokinase expression inhibitor project, luminescence, kanamycin, BacTiterGlo, confirmation (AID 1900); format: functional, organism-based
Streptokinase A = biological target: T3, Streptokinase A (Streptococcus pyogenes serotype M1, UniProt P10520); assay: S. pyogenes streptokinase expression inhibitors, potency, dose response, plasminogen activation absorbance, OD405 (AID 1914); format: functional, Streptococcus pyogenes M1 GAS;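 note: secreted streptokinase activity via plasminogen activation per viability signal from cell pellet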
T3 sequence (P10520 whole entry): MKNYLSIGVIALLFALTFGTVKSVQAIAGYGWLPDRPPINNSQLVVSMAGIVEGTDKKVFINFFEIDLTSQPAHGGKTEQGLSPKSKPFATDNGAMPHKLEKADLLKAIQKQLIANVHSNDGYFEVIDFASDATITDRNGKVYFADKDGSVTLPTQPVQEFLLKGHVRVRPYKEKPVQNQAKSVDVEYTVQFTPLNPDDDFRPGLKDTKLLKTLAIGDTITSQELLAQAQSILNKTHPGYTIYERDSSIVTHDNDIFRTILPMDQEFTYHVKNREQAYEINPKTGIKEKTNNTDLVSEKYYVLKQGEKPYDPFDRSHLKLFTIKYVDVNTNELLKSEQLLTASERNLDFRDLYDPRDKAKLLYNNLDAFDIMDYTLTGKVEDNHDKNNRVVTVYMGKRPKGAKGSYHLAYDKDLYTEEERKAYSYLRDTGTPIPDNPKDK

Streptococcus = assay: Group A Streptococcus viability loss, dose response, counter-screen for streptokinase expression inhibitor project, luminescence, BacTiterGlo (AID 1915); format: functional, organism-based;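 note: potency for reduction of bacterial viability or growth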

## COc1ccc(Cc2noc(-c3ccc(OC)c(OC)c3)n2)cc1OC
[1]
  EC50: > 120 µM (not active)
[2]
  EC50: > 120 µM (not active)
[3]
  EC50: > 120 µM (not active)

## O=C(Cc1ccccc1)NC(=S)Nc1cc(C(F)(F)F)ccc1Cl
Cytochrome P450 2C9
  AC50: 3.55 µM (inconclusive)

## COc1ccc(Cl)cc1N1C(=O)/C(=C\c2sccc2C)N=C1SCC(=O)NC1CC1
[4]
  EC50: > 260 µM (inactive)

## O=C1CC(N2C(=O)/C(=C/C=C/c3ccccc3)SC2=S)C(=O)N1c1ccccc1 (stereo not given)
[4]
  EC50: > 260 µM (inactive)

## CC1CCN(CC(=O)Nc2ccc(S(=O)(=O)NC3CC3)cc2)CC1
[5]
  EC50: > 195 µM (not active)
[6]
  IC50: 179 µM (active)

## CN1CCN(C(=O)c2ccc(Cn3cc(Cl)cn3)o2)CC1
[4]
  EC50: > 260 µM (inactive)

## OC(CNCC1COc2ccccc2O1)COCc1cccs1 (stereo not given)
[6]
  IC50: 76.9 µM (active)

## CCC12C(=O)C(CC)(C(c3ccccc3)=C1c1ccccc1)[C@@H]1C(=O)N(c3ccc(C)cc3)C(=O)C12 (stereo not given in full)
[1]
  EC50: 14.8 µM (active)
[2]
  EC50: > 120 µM (not active)
[3]
  EC50: > 120 µM (not active)
[7]
  EC50: 2.87 µM (active)
[8]
  EC50: > 30 µM (not active)

## Cc1ccccc1CNc1ccc(C(CC(N)=O)NC(=O)c2ccccc2)cc1[N+](=O)[O-] (stereo not given)
[9]
  AC50: 3.49 µM (active)

## O=[N+]([O-])C(=C\Nc1ccccc1O)/C=N/c1ccccc1O
[6]
  IC50: 58.9 µM (active)

## O=S(=O)(NCc1ccccn1)c1ccc2ccccc2c1
[4]
  EC50: > 260 µM (inactive)

## O=S1(=O)C=C(N2CCOCC2)c2ccccc21
Cytochrome P450 2C9
  AC50: 39.8 µM (inconclusive)

## Clc1ccccc1-c1cncnc1NCc1cccs1
Cytochrome P450 2C9
  AC50: 0.794 µM (inconclusive)

## CN(C(S)=Nc1ccc(SC(F)F)cc1)C(c1ccccc1)c1ccccc1
[9]
  AC50: 4.57 µM (active)

## CC(=O)Nc1ccc(Nc2ccccc2)cc1
[6]
  IC50: 75.6 µM (active)

## O=C(Cc1cccs1)NCc1ccccc1Br
[4]
  EC50: > 260 µM (inactive)

## COc1cccc(NC=C2C(=O)CC(C)(C)CC2=O)c1
[4]
  EC50: 8.09 µM (active)

## CCO/C(O)=C1/C(C)=Nc2ncnn2C1c1cccnc1 (stereo not given)
Cytochrome P450 2C19
  AC50: 22.4 µM (inconclusive)
Cytochrome P450 2C9
  AC50: 25.1 µM (inconclusive)

## Cc1ccc2oc(C(=O)N3CCC(C(N)=O)(N4CCCCC4)CC3)c(C)c2c1
[5]
  EC50: > 195 µM (not active)

## CCOc1ccc(NC(=S)N(CCc2ccncc2)C(C)C)cc1
[5]
  EC50: > 195 µM (not active)

## O=C(N/N=C/c1ccc(OC2CSC2)cc1)c1ccccc1
[9]
  AC50: 2.49 µM (active)

## CCCN(CCC)C(=O)CSc1nc2nnc(C)c-2c(N)n1-c1ccc(OC)cc1
[1]
  EC50: 19.3 µM (active)
[2]
  EC50: 19.8 µM (active)
[3]
  EC50: 16.1 µM (active)

## COc1ccc(N2CCN(C(c3cccs3)C(C)NS(=O)(=O)c3ccccc3)CC2)cc1 (stereo not given)
[4]
  EC50: > 260 µM (inactive)

## Fc1ccccc1-c1nc2nc3ccccc3nc2n1CC1CCCO1 (stereo not given)
[4]
  EC50: > 260 µM (inactive)

## Cc1ccccc1/[N+]([O-])=C/c1cccs1
[4]
  EC50: > 260 µM (inactive)

## COCCNC(=O)COc1ccc(Nc2ccccc2)cc1
[6]
  IC50: 47.6 µM (active)

## CC(C)C(C(=O)NCC1CCCO1)N(Cc1ccco1)C(=O)CNS(=O)(=O)c1ccc(F)cc1 (stereo not given)
Cytochrome P450 2C19
  AC50: 11.2 µM (inconclusive)
Cytochrome P450 2C9
  AC50: 39.8 µM (inconclusive)

## Cc1cc(C)c(-c2noc(C(=O)OC(C)(C)C)c2C(=O)OC(C)(C)C)c(C)c1
[10]
  EC50: 10.4 µM (active)
Streptokinase A
  EC50: 11.5 µM (active)
Streptococcus
  EC50: > 150 µM (not active)
Cytochrome P450 2C19
  AC50: 11.2 µM (inconclusive)
Cytochrome P450 2C9
  AC50: 12.6 µM (inconclusive)

## Cc1ccsc1/C=N/Nc1nc2ccccc2[nH]1
[6]
  IC50: 71.6 µM (active)

## COc1cc(C(=O)N(C)C2CCCN(Cc3ccccc3F)C2)cc(OC)c1OC (stereo not given)
[5]
  EC50: > 195 µM (not active)

## CC(C)C(C)N(Cc1ccc(C(=O)O)cc1)C(=O)c1ccc2ccccc2n1 (stereo not given)
[4]
  EC50: > 260 µM (inactive)

## CC1(c2cccs2)CC(c2cccs2)=C(C#N)C(=O)N1 (stereo not given)
[4]
  EC50: > 260 µM (inactive)

## CCOC(=O)Nc1ccc2nc(Sc3ccc(Cl)cc3)sc2c1
[9]
  AC50: 1.53 µM (active)

## COc1ccc(N2CCN(C(=O)COC(=O)CCOc3ccccc3C)CC2)cc1
[5]
  EC50: > 195 µM (not active)

## CCOc1ccccc1NC(=O)Cn1nnc(C(=O)NCc2ccc3c(c2)OCO3)c1N
[1]
  EC50: > 120 µM (not active)
[2]
  EC50: 36.7 µM (active)
[3]
  EC50: > 120 µM (not active)

## C=C(Br)Cn1c(CCCC)nc2ccccc21
[9]
  AC50: 0.514 µM (active)

## N#Cc1ccc(CN2CCC3(CC2)CCN(C(=O)c2cnccn2)CC3)cc1
Cytochrome P450 2C9
  AC50: 39.8 µM (inconclusive)

## O=C(Cc1ccc(Cl)c(Cl)c1)Nc1ccc(SC(F)F)cc1
[9]
  AC50: 4.04 µM (active)

## CCc1ccc(NC(=O)COC(=O)/C=C/c2c(C)nn(C3CCS(=O)(=O)C3)c2Cl)cc1 (stereo not given)
[4]
  EC50: > 260 µM (inactive)

## CCOc1ccccc1-c1noc(CCCC(=O)NC2CCCCC2)n1
[4]
  EC50: > 260 µM (inactive)

## Cc1ccc2c(c1)N(Cc1ccc([N+](=O)[O-])cc1)C=NS2(=O)=O
[5]
  EC50: > 195 µM (not active)

## CC(OC(=O)CCNC1=NS(=O)(=O)c2ccccc21)C(=O)Nc1ccc(N(C)C)cc1 (stereo not given)
[6]
  IC50: 54.7 µM (active)

## Cc1cccc(N2C(S)=C(C#N)C(=O)NC2c2cccs2)c1 (stereo not given)
[6]
  IC50: 110 µM (active)

## COC(=O)Nc1ccc(S(=O)(=O)Nc2cccc3ccccc23)cc1
[4]
  EC50: > 260 µM (inactive)

## Cc1sc2ncnc(N3CCOCC3)c2c1C
[1]
  EC50: 20.4 µM (active)
[2]
  EC50: 40.6 µM (active)
[3]
  EC50: 17.5 µM (active)

## O=C(NCc1nc2ccccc2[nH]1)C1=C[C@@H](c2ccc3c(c2)OCO3)C[C@@H](OCc2ccc(CO)cc2)O1
[5]
  EC50: > 195 µM (not active)
